Assay results as given in patent US20260347319A1, “YAP/TAZ-TEAD ONCOPROTEINS INHIBITORS” (BridGene Biosciences, Inc., priority 2022, published 2026).

Tested on: TEAD1
Experiment: MCF-7 TEAD1-luciferase reporter assay (MCF7-TEAD-Luc)
Type: cell-based
Details: MCF7 cells, overnight; for IC50: Homo sapiens; for TEAD1-Luc MCF7: Max Inhibition: % of DMSO-treated control
Procedure: The ability of compounds to inhibit TEAD-dependent transcription was assessed in the MCF7-TEAD-Luc reporter assay (BPS #60618). Cells were seeded at 10,000 cells in 200 μL per well into white wall, clear bottom 96-well plates (Corning #3610) and incubated at 37° C. for 24 hours, then treated with serial diluted compounds overnight, and luciferase signal was measured using the ONE-Step Luciferase Assay System (BPS #60690) using an EnSight Multimode plate reader (PerkinElmer, model #MLDHH34000000, integration time 100 ms) with Kaleido 3.0. software. For data analysis, dose-dependent curves were plotted as “% inhibition” (% of DMSO-treated control wells), and were fitted by four-parametric model in GraphPad Prism to obtain IC50 values.

SMILES | IC50 | TEAD1-Luc MCF7: Max Inhibition
C=CC(=O)N1C[C@H](C)[C@@H](/C=C/c2ccc(C(F)(F)F)cc2)C1 (stereo in doubt) [Example 40, 1-[(3R*,4R*)-3-methyl-4-{2-[4-(trifluoromethyl)phenyl]ethenyl}pyrrolidin-1-yl]prop-2-en-1-one] | > 500 nM | A (A ≥ 75%)
C=CC(=O)N1CC2(CC(/C=C/c3ccc(C(F)(F)F)cc3)C2)C1 [Example 20] | 100 to 500 nM | B (75% > B ≥ 50%)
C=CC(=O)N1CC2(CCC(/C=C/c3cc(C(F)(F)F)on3)CC2)C1 [Example 24, 1-{7-[(E)-2-[5-(trifluoromethyl)-1,2-oxazol-3-yl]ethenyl]-2-azaspiro[3.5]nonan-2-yl}prop-2-en-1-one] | > 500 nM | C (50% > C ≥ 2%)
C=CC(=O)N1CC2(CCC(/C=C\c3cc(C(F)(F)F)on3)CC2)C1 [Example 25, 1-{7-[(Z)-2-[5-(trifluoromethyl)-1,2-oxazol-3-yl]ethenyl]-2-azaspiro[3.5]nonan-2-yl}prop-2-en-1-one] | 100 to 500 nM | B (75% > B ≥ 50%)
C=CC(=O)N1C[C@@H](CC)[C@H](/C=C\c2ccc(C(F)(F)F)cc2)C1 [Example 31, 1-{3-ethyl-4-[(Z)-2-[4-(trifluoromethyl)phenyl]ethenyl]pyrrolidin-1-yl}prop-2-en-1-one] | 100 to 500 nM | A (A ≥ 75%)
C=CC(=O)N1C[C@@H](CC)[C@H](/C=C/c2ccc(C(F)(F)F)cc2)C1 [Example 32, 1-{3-ethyl-4-[(E)-2-[4-(trifluoromethyl)phenyl]ethenyl]pyrrolidin-1-yl}prop-2-en-1-one] | 100 to 500 nM | A (A ≥ 75%)
C=CC(=O)N1CC2(CC=C(c3ccc(C(F)(F)F)cc3)C2)C1 [Example 48, 1-(6-(4-(trifluoromethyl)phenyl)-2-azaspiro[3.4]oct-6-en-2-yl)prop-2-en-1-one] | 100 to 500 nM | B (75% > B ≥ 50%)
C=CC(=O)N1CC(c2cc3ccc(C(F)(F)F)cc3o2)C1 [Example 49, 1-{3-[6-(trifluoromethyl)-1-benzofuran-2-yl]azetidin-1-yl}prop-2-en-1-one] | 100 to 500 nM | B (75% > B ≥ 50%)
C=CC(=O)N1CC(c2cc3ccc(C(F)(F)F)cc3[nH]2)C1 [Example 52, 1-{3-[6-(trifluoromethyl)-1H-indol-2-yl]azetidin-1-yl}prop-2-en-1-one] | 10 to 100 nM | A (A ≥ 75%)
C=CC(=O)N1CC(c2cc3ccc(C(F)(F)F)cc3n2C)C1 [Example 53, 1-{3-[1-methyl-6-(trifluoromethyl)indol-2-yl]azetidin-1-yl}prop-2-en-1-one] | 100 to 500 nM | B (75% > B ≥ 50%)
C=CC(=O)N1CCC(/C=C/c2cccc(C(F)(F)F)c2)CC1 [Example 54, (E)-1-(4-(3-(trifluoromethyl)styryl)piperidin-1-yl)prop-2-en-1-one] | 100 to 500 nM | B (75% > B ≥ 50%)
C=CC(=O)N1CCC(/C=C\c2cccc(C(F)(F)F)c2)CC1 [Example 55, (Z)-1-(4-(3-(trifluoromethyl)styryl)piperidin-1-yl)prop-2-en-1-one] | > 500 nM | C (50% > C ≥ 2%)
C=CC(=O)N1CC(/C=C/c2ccc(C(F)(F)F)cc2)C(n2cccn2)C1 (centres unmarked) [Example 70] | 10 to 100 nM | A (A ≥ 75%)
C=CC(=O)N1CCC(C#Cc2ccc(C(F)(F)F)cc2)(OC)CC1 [Example 71, 1-(4-methoxy-4-((4-(trifluoromethyl)phenyl)ethynyl)piperidin-1-yl)prop-2-en-1-one] | 10 to 100 nM | B (75% > B ≥ 50%)
C=CC(=O)N1CCC(F)(C#Cc2ccc(C(F)(F)F)cc2)CC1 [Example 72, 1-(4-fluoro-4-((4-(trifluoromethyl)phenyl)ethynyl)piperidin-1-yl)prop-2-en-1-one] | 10 to 100 nM | B (75% > B ≥ 50%)
C=CC(=O)N1CCC(O)(C#Cc2ccc(C(F)(F)F)cc2)CC1 [Example 73, 1-(4-hydroxy-4-((4-(trifluoromethyl)phenyl)ethynyl)piperidin-1-yl)prop-2-en-1-one] | 10 to 100 nM | A (A ≥ 75%)
C=CC(=O)N1CCCC(C#Cc2cccc(C(F)(F)F)c2)C1 (centres unmarked) [Example 75, 1-(3-((3-(trifluoromethyl)phenyl)ethynyl)piperidin-1-yl)prop-2-en-1-one] | 10 to 100 nM | A (A ≥ 75%)

Continued, in another order:

IC50 | SMILES | TEAD1-Luc MCF7: Max Inhibition
≤ 10 nM | C=CC(=O)N1CC(C/C=C/c2cc(C(F)(F)F)on2)C1 [Example 2, 1-{3-[(2E)-3-[5-(trifluoromethyl)-1,2-oxazol-3-yl]prop-2-en-1-yl]azetidin-1-yl}prop-2-en-1-one] | A (A ≥ 75%)
≤ 10 nM | C=CC(=O)N1CC(/C=C/c2ccc(C(F)(F)F)c(OC)c2)C1 [Example 3, 1-{3-[(E)-2-[3-methoxy-4-(trifluoromethyl)phenyl]ethenyl]azetidin-1-yl}prop-2-en-1-one] | B (75% > B ≥ 50%)
≤ 10 nM | C=CC(=O)N1CC(/C=C/c2ccc(C(F)(F)F)c(F)c2)C1 [Example 4, 1-{3-[(E)-2-[3-fluoro-4-(trifluoromethyl)phenyl]ethenyl]azetidin-1-yl}prop-2-en-1-one] | A (A ≥ 75%)
10 to 100 nM | C=CC(=O)N1CCC(/C=C/c2ccc(C(F)(F)F)cc2)CC1 [Example 6] | B (75% > B ≥ 50%)
≤ 10 nM | C=CC(=O)N1CC(F)(/C=C/c2cc(C(F)(F)F)on2)C1 [Example 7, (E)-1-(3-fluoro-3-(2-(5-(trifluoromethyl)isoxazol-3-yl)vinyl)azetidin-1-yl)prop-2-en-1-one] | A (A ≥ 75%)
≤ 10 nM | C=CC(=O)N1CC(F)(/C=C\c2cc(C(F)(F)F)on2)C1 [Example 8, (Z)-1-(3-fluoro-3-(2-(5-(trifluoromethyl)isoxazol-3-yl)vinyl)azetidin-1-yl)prop-2-en-1-one] | A (A ≥ 75%)
≤ 10 nM | C=CC(=O)N1CC(C)(/C=C/c2cc(C(F)(F)F)on2)C1 [Example 16, 1-(3-methyl-3-(2-(5-(trifluoromethyl)isoxazol-3-yl)vinyl)azetidin-1-yl)prop-2-en-1-one] | A (A ≥ 75%)
≤ 10 nM | C=CC(=O)N1CC(/C=C/c2ccc(C(F)(F)F)cc2)(OC)C1 [Example 17] | B (75% > B ≥ 50%)
≤ 10 nM | C=CC(=O)N1CC(C)(/C=C/c2ccc(C(F)(F)F)cc2)C1 [Example 18] | A (A ≥ 75%)
10 to 100 nM | C=CC(=O)N1CC(/C=C/c2ccc(C(F)(F)F)cc2OC)C1 [Example 19, 1-(3-(2-methoxy-4-(trifluoromethyl)styryl)azetidin-1-yl)prop-2-en-1-one] | C (50% > C ≥ 2%)
10 to 100 nM | C=CC(=O)N1CC2(CC(/C=C/c3cc(C(F)(F)F)on3)C2)C1 [Example 22, 1-{6-[(E)-2-[5-(trifluoromethyl)-1,2-oxazol-3-yl]ethenyl]-2-azaspiro[3.3]heptan-2-yl}prop-2-en-1-one] | B (75% > B ≥ 50%)
10 to 100 nM | C=CC(=O)N1CC2(CC(/C=C\c3cc(C(F)(F)F)on3)C2)C1 [Example 23, 1-{6-[(Z)-2-[5-(trifluoromethyl)-1,2-oxazol-3-yl]ethenyl]-2-azaspiro[3.3]heptan-2-yl}prop-2-en-1-one] | B (75% > B ≥ 50%)
10 to 100 nM | C=CC(=O)N1CC(/C=C\c2cc(C(F)(F)F)on2)C1 [Example 26, 1-{3-[(Z)-2-[5-(trifluoromethyl)-1,2-oxazol-3-yl]ethenyl]azetidin-1-yl}prop-2-en-1-one] | B (75% > B ≥ 50%)
10 to 100 nM | C=CC(=O)N1CCC(/C=C/c2ccc(C(F)(F)F)cc2)(OC)C1 (centres unmarked) [Example 35, (E)-1-(3-methoxy-3-(4-(trifluoromethyl)styryl)pyrrolidin-1-yl)prop-2-en-1-one] | A (A ≥ 75%)
10 to 100 nM | C=CC(=O)N1CC(C#N)(/C=C/c2ccc(C(F)(F)F)cc2)C1 [Example 37] | A (A ≥ 75%)
10 to 100 nM | C=CC(=O)N1CC2(CC=C(c3ccc(C(F)(F)F)cc3)CC2)C1 [Example 46, 1-(7-(4-(trifluoromethyl)phenyl)-2-azaspiro[3.5]non-6-en-2-yl)prop-2-en-1-one] | B (75% > B ≥ 50%)
≤ 10 nM | C=CC(=O)N1CC2(C=C(c3ccc(C(F)(F)F)cc3)CC2)C1 [Example 47, 1-(6-(4-(trifluoromethyl)phenyl)-2-azaspiro[3.4]oct-5-en-2-yl)prop-2-en-1-one] | C (50% > C ≥ 2%)
≤ 10 nM | C=CC(=O)N1CC(c2cc3cc(C(F)(F)F)ccn3n2)C1 [Example 50, 1-(3-(5-(trifluoromethyl)pyrazolo[1,5-a]pyridin-2-yl)azetidin-1-yl)prop-2-en-1-one] | B (75% > B ≥ 50%)
10 to 100 nM | C=CC(=O)N1CC(c2cc3ccc(C(F)(F)F)cn3n2)C1 [Example 51, 1-(3-(6-(trifluoromethyl)pyrazolo[1,5-a]pyridin-2-yl)azetidin-1-yl)prop-2-en-1-one] | B (75% > B ≥ 50%)
≤ 10 nM | C=CC(=O)N1CCC(C)(C#Cc2ccc(C(F)(F)F)cc2)CC1 [Example 74, 1-(4-methyl-4-((4-(trifluoromethyl)phenyl)ethynyl)piperidin-1-yl)prop-2-en-1-one] | B (75% > B ≥ 50%)
